Source: patent US10993923B2, “Method for ameliorating fibrosis using 1-[4-chloro-3-(trifluoromethyl)phenyl]-3-[3-(4-cyanophenoxy)phenyl]urea” (priority 2016, dated 2021)

What was measured:
LX2 cells = test: Apoptosis (Annexin V / propidium iodide flow cytometry), LX2 cells; assay type: cell-based, human; conditions: LX2; FIG. 16D, 16E
Procedure: Rat immortal hepatic stellate cell line HSC-T6 and LX2 human hepatic stellate cell line were provided by Professor Scott Friedman of Mount Sinai Hospital in New York, USA. The primary mouse HSCs were obtained via the way: after intubating the hepatic portal vein of the mouse, the cells were perfused with […] and ethylene glycol bis-aminoethyl ether tetraacetic acid (EGTA) buffer in situ, and then collagenase was injected to digest the liver tissue, and then the primary mouse HSCs were isolated by Histodnz gradient. HSC-T6 cells were cultured in Waymouth medium; LX2 cells and primary mouse HSCs were cultured in Dulbecco's Modified Eagle Medium (DMEM) containing 10% fetal bovine serum (FBS), 100 μg/mL penicillin, 100 μg/mL streptomycin, and 2 mM L-glutamine HSC-T6 cells, LX2 cells and primary mouse HSCs were cultured in a humidified incubator containing 5% carbon dioxide at 37° C. After adding the FBS, the resting HSC is started. […] The experiment was carried out following the manufacturer's instructions, and each group was triple repetition. […] The proportion of apoptotic cells was mixed the early (Annexin V+/PI-) and the late (Annexin V+/PI+) apoptotic cells measured by BD FACS Verse flow cytometry (BD, USA). Plasmids encoding the human wild-type SHP-1 and SHP-1 mutant, in which the N-SH2 domain was […] was changed into an […]) were cloned into the pCMV6-entry vector with myc-tag. These mutants were confirmed through DNA sequencing. […] (Chicago, Ill., USA).

[1] = tested on: TGF-β, PDGFR and STAT3 pathways in LX2 cells; test: Western blot of signalling proteins in LX2 cells; assay type: cell-based, human; conditions: FIG. 16D, 16E
Procedure: Rat immortal hepatic stellate cell line HSC-T6 and LX2 human hepatic stellate cell line were provided by Professor Scott Friedman of Mount Sinai Hospital in New York, USA. The primary mouse HSCs were obtained via the way: after intubating the hepatic portal vein of the mouse, the cells were perfused with […] and ethylene glycol bis-aminoethyl ether tetraacetic acid (EGTA) buffer in situ, and then collagenase was injected to digest the liver tissue, and then the primary mouse HSCs were isolated by Histodnz gradient. HSC-T6 cells were cultured in Waymouth medium; LX2 cells and primary mouse HSCs were cultured in Dulbecco's Modified Eagle Medium (DMEM) containing 10% fetal bovine serum (FBS), 100 μg/mL penicillin, 100 μg/mL streptomycin, and 2 mM L-glutamine HSC-T6 cells, LX2 cells and primary mouse HSCs were cultured in a humidified incubator containing 5% carbon dioxide at 37° C. After adding the FBS, the resting HSC is started. […] Whole-cell extracts were obtained via RIPA buffer (Millipore, USA) and protein concentrations were quantified via a BCA protein assay kit (Thermo Fisher Scientific, USA). 20 or 25 μg of protein was added to various percentages of SDS-sodium dodecyl sulfate-acrylamide gel and blotted onto a polyvinylidene fluoride (PVDF) membrane. […] Proteins were detected by Immobilon Western Chemiluminescent HRP substrate (Millipore, USA) or ECL detection system (UVP Corporation, USA). […] Plasmids encoding the human wild-type SHP-1 and SHP-1 mutant, in which the N-SH2 domain was […] was changed into an […]) were cloned into the pCMV6-entry vector with myc-tag. These mutants were confirmed through DNA sequencing. […] (Chicago, Ill., USA).

[2] = tested on: CCl4-induced hepatic fibrosis in mice; test: CCl4-induced hepatic fibrosis mice prevention model; assay type: in vivo, male C57BL/6J mice; conditions: concurrently administered with CCl4 for 4 weeks; FIG. 11A-11E
Source text: (§1) In male C57BL/6J mice, liver fibrosis was induced by carbon tetrachloride (CCl4). The mice were given peritoneal injection of carbon tetrachloride for 4 or 8 weeks every two weeks.
(§2) The mice liver samples were stored in 10% formaldehyde, dehydrated with gradient alcohol, embedded in paraffin blocks, sectioned to a thickness of 3 μm, placed on glass slides, and stained with Picrosirius Red Stain kit (ScyTek, USA), following the manufacturer's instructions. The severity of liver fibrosis was graded according to the Ishak fibrosis score. Quantitative collagen-positive area (qCPA) was determined by densitometry via ImageJ software. Hepatic hydroxyproline concentrations were measured by the hydroxyproline assay kit (Biovision, USA), following the manufacturer's instructions Immunohistochemistry was performed by the Leica BOND-MAX automatic chromatograph (Leica Biosystems, Germany), following the manufacturer's instructions.

SHP-1 [3] = molecular target: T1, SHP-1 (Homo sapiens, UniProt P29350); test: SHP-1 phosphatase activity, LX2 cells; assay type: cell-based; conditions: LX2; sorafenib 5 μM, compound 2.5 or 5 μM; FIG. 16C
T1 construct: LX2 cell protein extract were reacted with anti-SHP-1 antibody in immunoprecipitation buffer overnight; endogenous in cells; host or cells: LX2 cells
T1 sequence (P29350 whole entry): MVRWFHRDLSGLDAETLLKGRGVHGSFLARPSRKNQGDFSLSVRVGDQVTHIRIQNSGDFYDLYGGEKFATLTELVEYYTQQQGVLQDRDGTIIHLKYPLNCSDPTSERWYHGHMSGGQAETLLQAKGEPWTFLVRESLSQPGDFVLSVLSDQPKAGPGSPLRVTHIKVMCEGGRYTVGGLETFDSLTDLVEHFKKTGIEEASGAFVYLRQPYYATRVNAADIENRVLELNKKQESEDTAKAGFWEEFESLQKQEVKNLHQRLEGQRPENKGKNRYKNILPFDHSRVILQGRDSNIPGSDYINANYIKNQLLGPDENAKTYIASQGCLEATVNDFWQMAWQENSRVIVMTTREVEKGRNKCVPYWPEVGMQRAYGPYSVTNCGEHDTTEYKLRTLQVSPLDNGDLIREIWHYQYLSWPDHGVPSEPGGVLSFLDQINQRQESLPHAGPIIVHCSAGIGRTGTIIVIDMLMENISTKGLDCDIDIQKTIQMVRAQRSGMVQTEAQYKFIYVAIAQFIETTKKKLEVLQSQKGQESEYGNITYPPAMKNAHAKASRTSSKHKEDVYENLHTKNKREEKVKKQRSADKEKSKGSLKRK
Procedure: After drug treatment, mouse fibroblasts (NIH3T3 cell line), human lung epithelial cells (A549 cell line) or LX2 cell protein extract were reacted with anti-SHP-1 antibody in immunoprecipitation buffer overnight. Protein A/G Sepharose Fast Flow Beads (GE) were added to each sample, followed by a rotation reaction at 4° C. for 3 hours. The 96EnzChek® tyrosine phosphatase assay kit (R-22067) was used for SHP-1 activity assay (Invitrogen, USA).
Plasmids encoding the human wild-type SHP-1 and SHP-1 mutant, in which the N—SH2 domain was truncated (dN1) or one aspartic acid at site 61 was changed into an alanine residue (D61A) were cloned into the pCMV6-entry vector with myc-tag. These mutants were confirmed through DNA sequencing. Smart-pool siRNA, including the control (D-001810-10), and SHP-1 (PTPN6, L-009778-00-0005) were obtained from Dharmacon Inc. (Chicago, Ill., USA). For transient expression, SHP-1 plasmids or siRNA (final concentration, 100 nM) with the Lipofectamine 2000 transfection reagent were pretransfected into the LX2 cells for 24 h, following the manufacturer's instructions.

SHP-1 [4] = molecular target: T2, SHP-1 (Rattus norvegicus, UniProt P81718); test: SHP-1 phosphatase activity, HSC-T6 cells; assay type: cell-based; conditions: sorafenib 5 μM, compound 2.5 or 5 μM, FIG. 16C
T2 construct: endogenous in cells; host or cells: HSC-T6 cells
T2 sequence (P81718 whole entry): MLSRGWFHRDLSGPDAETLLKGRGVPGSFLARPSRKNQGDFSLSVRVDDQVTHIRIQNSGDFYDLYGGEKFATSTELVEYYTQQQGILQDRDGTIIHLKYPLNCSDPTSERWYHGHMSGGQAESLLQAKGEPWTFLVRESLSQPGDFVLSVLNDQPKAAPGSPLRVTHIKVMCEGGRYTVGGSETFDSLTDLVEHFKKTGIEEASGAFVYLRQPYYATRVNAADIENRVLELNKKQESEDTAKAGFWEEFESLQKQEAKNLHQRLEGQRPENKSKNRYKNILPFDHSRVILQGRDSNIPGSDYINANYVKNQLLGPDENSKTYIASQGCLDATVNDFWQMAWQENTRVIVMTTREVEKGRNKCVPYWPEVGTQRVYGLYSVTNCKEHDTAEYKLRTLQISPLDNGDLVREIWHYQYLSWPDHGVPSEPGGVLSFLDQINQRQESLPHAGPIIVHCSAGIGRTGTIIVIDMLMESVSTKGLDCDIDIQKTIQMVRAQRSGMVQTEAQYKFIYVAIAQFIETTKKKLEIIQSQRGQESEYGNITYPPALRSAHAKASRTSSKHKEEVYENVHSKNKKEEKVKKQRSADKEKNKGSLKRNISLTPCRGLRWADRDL

[5] = tested on: CCl4-induced hepatic fibrosis in mice; test: CCl4-induced hepatic fibrosis mice treatment model; assay type: in vivo, male C57BL/6J mice; conditions: compound 5, 10, or 20 mg/kg or sorafenib 10 mg/kg, with CCl4 for 6 weeks after 2 weeks CCl4 induction; FIG. 12A
Source text: as §1, §2
Continuous variables are presented as mean (standard error), and categorical data are presented as number (percentage), as appropriate. Differences between subgroups were evaluated using the Student t test. Spearman's correlation was used for the association between SHP-1 and serum alanine aminotransferase (ALT). The mouse survival rate was estimated using the Kaplan-Meier method. The log-rank test was used to determine the statistical differences in survival of the different experimental groups. Statistical analysis was performed using STATA (version 13, Stata Corp, College Station, Tex., USA). All tests were two-sided, and P<0.05 was considered significant.

## O=C(O)COc1ccc(C(=O)CBr)cc1 [PTP inhibitor III, reference compound]
LX2 cells
  compound-induced apoptosis of LX2 cells in the presence of a phosphatase inhibitor: rescued
[1]
  p-STAT3 in compound-treated LX2 cells in the presence of a phosphatase inhibitor: upregulated

## CNC(=O)c1cc(Oc2ccc(NC(=O)Nc3ccc(Cl)c(C(F)(F)F)c3)cc2)ccn1 [sorafenib, reference compound]
[2]
  hepatic fibrosis (Picrosirius Red staining, qCPA, Ishak fibrosis score, α-SMA expression, hydroxyproline concentration): significant fibrosis regression
SHP-1 [3]
  SHP-1 activity: increases the activity of SHP-1
SHP-1 [4]
  SHP-1 activity: increases the activity of SHP-1
[5]
  hepatic fibrosis (picrosirius red staining): significantly improved hepatic fibrosis

## Sodium vanadate [reference compound]
LX2 cells
  compound-induced apoptosis of LX2 cells in the presence of a phosphatase inhibitor: rescued
[1]
  p-STAT3 in compound-treated LX2 cells in the presence of a phosphatase inhibitor: upregulation
